# Entries after “also recorded” stand apart in the source; their conditions may differ. Like-named read-outs stand apart in the source and are kept apart here.
# Experiments:
# [1] = system: animal model of anti-histamine; assay: Animal model of anti-histamine (Evans blue, dyed back skin); format: in vivo; conditions: rat; for Inhibition rate (%): histamine s.c., Evans blue; for Absorbency(A): blank control 0.099
# Method: Forty healthy male rats were divided randomly into 4 groups, […], namely, the blank control group, the 5,6-di(m-acetylphenylamino)-2,3-pyridindione group, the 5,6-di(m-carboxylphenylamino)-2,3-pyridindione group, and the aspirin group as the positive control group. The compounds with dosage listed in Table 3 were administered orally to the rats, respectively, then 0.1 ml of […] was administered subcutaneously, and then 1 ml of 1% Evans blue was immediately injected intravenously under the tongue.
# COX-1 = COX-1 (Homo sapiens, UniProt P23219); assay: Inhibition of COX-1 (TMPD/arachidonic acid, absorption at 611 nm); format: biochemical
# Chain of COX-1 (P23219 24-599): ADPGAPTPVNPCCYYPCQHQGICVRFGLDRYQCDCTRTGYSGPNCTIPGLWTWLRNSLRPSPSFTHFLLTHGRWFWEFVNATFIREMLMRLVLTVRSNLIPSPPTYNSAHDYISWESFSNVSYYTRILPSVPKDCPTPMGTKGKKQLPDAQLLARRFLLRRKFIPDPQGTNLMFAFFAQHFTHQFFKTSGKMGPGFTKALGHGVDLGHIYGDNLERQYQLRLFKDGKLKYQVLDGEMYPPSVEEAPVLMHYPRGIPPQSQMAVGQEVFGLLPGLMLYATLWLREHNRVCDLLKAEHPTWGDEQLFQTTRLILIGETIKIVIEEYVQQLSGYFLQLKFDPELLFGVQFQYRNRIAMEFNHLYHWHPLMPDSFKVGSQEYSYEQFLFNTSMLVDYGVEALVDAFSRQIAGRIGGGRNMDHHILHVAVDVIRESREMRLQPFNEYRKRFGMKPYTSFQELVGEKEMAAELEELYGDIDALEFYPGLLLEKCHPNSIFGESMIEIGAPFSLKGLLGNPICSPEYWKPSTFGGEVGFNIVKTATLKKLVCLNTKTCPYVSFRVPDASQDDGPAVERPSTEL
# Method: Methods: 4 μl of COX-1 was added to 960 μl 0.1 M Tris-HCl in a cell. The mixture was equilibrated for 30s, and then added with 1 μl inhibitor. After 2 min, 15 μl TMPD and 15 μl A.A. were immediately added to the mixture and mixed well. After 7 min, the absorption was measured at 611 nm.
# [2] = system: mouse model of auricle swelling; assay: Mouse model of auricle swelling (xylene); format: in vivo; conditions: xylene after 60 min, killed 4 hours later
# Method: Forty healthy male mice were divided randomly into 4 groups, 10 mice per group, namely, the blank control group, the 5,6-di(m-acetylphenylamino)-2,3-pyridindione group, the 5,6-di(m-carboxylphenylamino)-2,3-pyridindione group, and the aspirin group as the drug control group. The compounds with dosage listed in Table 2 were administered orally to the […], respectively. After 60 min 0.05 ml xylene (analytical grade) was applied on the right ear of each mouse, respectively. The mice were killed 4 hours later, a disk of ear tissue was removed from the same location of both ears using a 5.5-mm biopsy punch, then each of the ear disks was weighed, and the rates of auricle swelling inhibition were calculated, as listed in Table 2.
# mice = conditions: mouse, in vivo; for Death rate: both, 7 days
# Method: Toxicological test of 5,6-di(m-acetylphenylamino)-2,3-pyridindione Single dose administration was used. 5,6-di(m-acetylphenylamino)-2,3-pyridindione was prepared to the required concentration with the presence of 0.5% DMSO. Sixty healthy male mice and 60 healthy female mice were divided randomly into 10 mice per group, 12 groups, among which 5 groups were administered by tail vein injection, and 5 groups were administered via gastro infusion, and the other two groups were used as negative controls. The activities and death of mice were observed and recorded for 7 days after the administration of the compound.
# [3] = system: mouse skin capillary permeability; assay: Increment of the mouse skin capillary permeability (xylene, Evans blue); format: in vivo; conditions: OD at 590 nm, blank control 0.442 ± 0.240, lower is better
# Description: One hundred and seventy healthy male mice were divided randomly into 17 groups, 10 mice per group, namely, the blank control group, the high, medium, and low dosage groups of 5,6-di(m-acetylphenylamino)-2,3-pyridindione, respectively, the high, medium, and low dosage groups of 5,6-di(m-carboxylphenylamino)-2,3-pyridindione, respectively, the high, medium, and low dosage groups of 5,6-di(p-carboxylphenylamino)-2,3-pyridindione, respectively, the high, medium, and low dosage groups of 5,6-di(p-chlorophenylamino)-2,3-pyridindione, respectively, the high, medium, and low dosage groups of 5,6-di(p-tolylamino)-2,3-pyridindione, and the aspirin group as the positive control group. The mice were administered via gastro infusion according to the Table 5, and 1 hour later, 0.5%. Evans blue saline was injected into the mice via tail vain at 0.1 ml/10 g, then xylene with a dosage of 0.03 ml/mouse was applied to the mice in the shaved area at the middle belly. The mice were killed by cervical dislocation 20 min later, and their belly skin was peeled off, where the blue area was removed by using a biopsy punch, broken up by using surgery scissors, and put into covered glass tubes. Seven milliliters of acetone/water (7:3, v/v) solution was added into each tube, which was then stored in the dark and was gently shaken up 2-3 times daily. After 3 days, the solution in each tube was centrifuged at 2000 rpm for 10 min, and the supernatant was measured for optical density at 590 nm with the absorption of acetone/water (7:3, v/v) solution as the baseline. The lower the OD value, the better the anti-inflammatory effect.
# [4] = system: rat model of toe swelling; assay: Rat model of toe swelling (3% formaldehyde); format: in vivo; conditions: toe volume 2 hours after injection
# Method: Forty healthy male rats were divided randomly into 4 groups, 10 rats per group, namely, the blank control group, the 5,6-di(m-acetylphenylamino)-2,3-pyridindione group, the 5,6-di(m-carboxylphenylamino)-2,3-pyridindione group, and the aspirin group as the drug control group. 0.1 ml of inflammation inducer (3% formaldehyde) was subcutaneously injected into the right toe of the hind leg of each rat. After 24 hours, the compounds with dosage listed in Table 1 were injected into the rats, respectively. The volume of the toes was measured 2 hours later after injection by using the Water Volume Method described in the Methodology of Pharmacology Experiments, 2nd edition, Shu-yun Xu, etc., People's Medical Publishing House, Beijing, 1991.
# COX-2 = target: T1, COX-2 (Homo sapiens, UniProt P35354); assay: Inhibition of COX-2 in COLO 205 cell line (Prostaglandin E2 EIA); format: cell-based
# T1 construct: host or cells: COLO 205
# T1 sequence (P35354 18-604): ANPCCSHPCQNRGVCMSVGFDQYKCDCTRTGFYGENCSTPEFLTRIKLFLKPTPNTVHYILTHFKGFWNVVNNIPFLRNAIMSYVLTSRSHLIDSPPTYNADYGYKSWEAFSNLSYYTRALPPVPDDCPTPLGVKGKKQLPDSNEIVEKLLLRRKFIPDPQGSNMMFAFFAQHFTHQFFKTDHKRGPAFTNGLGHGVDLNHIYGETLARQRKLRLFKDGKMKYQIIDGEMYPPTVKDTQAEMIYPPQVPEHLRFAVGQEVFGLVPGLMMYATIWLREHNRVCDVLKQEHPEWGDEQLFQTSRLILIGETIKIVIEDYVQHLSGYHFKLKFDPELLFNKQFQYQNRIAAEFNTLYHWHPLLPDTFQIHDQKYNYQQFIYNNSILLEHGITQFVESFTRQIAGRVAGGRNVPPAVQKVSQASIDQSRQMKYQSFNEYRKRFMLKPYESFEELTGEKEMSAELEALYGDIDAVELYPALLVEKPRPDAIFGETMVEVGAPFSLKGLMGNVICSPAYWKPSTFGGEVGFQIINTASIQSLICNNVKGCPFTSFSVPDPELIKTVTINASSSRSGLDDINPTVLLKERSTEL
# Description: Enzyme-Linked ImmunoSorbent Assay Kit (Prostaglandins E2 (PEG2) EIA Kit-Monoclonal, Cayman Chemical company (U.S.A)).
# [5] = gastro infusion 1.0 mg/kg (low dosage)
# [6] = gastro infusion 3.2 mg/kg (medium dosage)
# [7] = gastro infusion 6.5 mg/kg (high dosage)
# [8] = 5 mg/kg injected 24 h after formaldehyde
smiles,measurement,setting,value
"CC(=O)c1cccc(NC2=CC(=O)C(=O)N=C2Nc2cccc(C(C)=O)c2)c1 [5,6-di(m-acetylphenylamino)-2,3-pyridindione]",Inhibition rate (%),[1]; 10 mg/kg orally,19%
same,Absorbency(A),[1]; 10 mg/kg orally,0.081 A
same,inhibition effect on COX-1,"COX-1; 1 μl of 10 mM inhibitor in dimethylsulfoxide, compared with control group without inhibitors, FIG. 1",no obvious inhibition effects; also recorded: almost no inhibition effect
same,Inhibition rate (%) of auricle swelling,[2]; 30 mg/kg orally,83.2%
same,Death rate,mice; 720 mg/kg,0
same,Death rate,mice; 1030 mg/kg,0
same,Death rate,mice; 1470 mg/kg,0
same,Death rate,mice; 2100 mg/kg,0
same,Death rate,mice; 3000 mg/kg,0
same,death of the animals,mice,No death of the animals was observed
same,"toxic reaction in aspect of activity, reactivity, back hair, dejecta",mice,normal
same,Toxic reaction,mice; 720 mg/kg,normal
same,Toxic reaction,mice; 1030 mg/kg,normal
same,Toxic reaction,mice; 1470 mg/kg,normal
same,Toxic reaction,mice; 2100 mg/kg,normal
same,Toxic reaction,mice; 3000 mg/kg,normal
same,OD (A),[3]; [5],0.241 ± 0.121 A
same,OD (A),[3]; [6],0.035 ± 0.049 A
same,OD (A),[3]; [7],0.019 ± 0.018 A
same,Inhibition rate (%) of toe swelling,[4]; [8],62.5%
same,inhibition of the activity of COX-2,"COX-2; COLO 205 cell line, PGE2 EIA, FIG. 2",higher inhibition effects on COX-2 than the former two
same,inhibition of the growth of the COLO205 cells ex vivo,COX-2; FIG. 2 legend,inhibits the growth of the COLO205 cells ex vivo
"Cc1ccc(NC2=CC(=O)C(=O)N=C2Nc2ccc(C)cc2)cc1 [5,6-di(p-tolylamino)-2,3-pyridindione]",OD (A),[3]; [5],0.049 ± 0.049 A
same,OD (A),[3]; [6],0.011 ± 0.022 A
same,OD (A),[3]; [7],0.051 ± 0.042 A
"CC(=O)Oc1ccccc1C(=O)O [Aspirin, reference compound]",Inhibition rate (%),[1]; 160 mg/kg orally,13%
same,Absorbency(A),[1]; 160 mg/kg orally,0.086 A
same,inhibition effect on COX-1,COX-1,inhibited
same,Inhibition rate (%) of auricle swelling,[2]; 100 mg/kg orally,30.1%
same,Inhibition rate (%) of toe swelling,[4]; 50 mg/kg injected 24 h after formaldehyde,10.1%
"O=C1C=C(Nc2ccc(C(=O)O)cc2)C(Nc2ccc(C(=O)O)cc2)=NC1=O [5,6-di(p-carboxylphenylamino)-2,3-pyridindione]",OD (A),[3]; [5],0.089 ± 0.054 A
same,OD (A),[3]; [6],0.043 ± 0.023 A
same,OD (A),[3]; [7],0.030 ± 0.012 A
"O=C1C=C(Nc2ccc(Cl)cc2)C(Nc2ccc(Cl)cc2)=NC1=O [5,6-di(p-chlorophenylamino)-2,3-pyridindione]",OD (A),[3]; [5],0.142 ± 0.098 A
same,OD (A),[3]; [6],0.035 ± 0.026 A
same,OD (A),[3]; [7],0.015 ± 0.015 A
"O=C1C=C(Nc2cccc(C(=O)O)c2)C(Nc2cccc(C(=O)O)c2)=NC1=O [5,6-di(m-carboxylphenylamino)-2,3-pyridindione]",Inhibition rate (%),[1]; 10 mg/kg orally,16%
same,Absorbency(A),[1]; 10 mg/kg orally,0.084 A
same,Inhibition rate (%) of auricle swelling,[2]; 30 mg/kg orally,65.5%
same,OD (A),[3]; [5],0.038 ± 0.026 A
same,OD (A),[3]; [6],0.030 ± 0.010 A
same,OD (A),[3]; [7],0.036 ± 0.011 A
same,Inhibition rate (%) of toe swelling,[4]; [8],45.5%
